In US11339130B1 (Blade Therapeutics, Inc., priority 2016, dated 2022) one finds IC50 data, which are given here for 14 compounds.

One assay addresses T1, Human Calpain 1/NS1 (Homo sapiens, UniProt P07384).
T1 sequence (P07384 1-714): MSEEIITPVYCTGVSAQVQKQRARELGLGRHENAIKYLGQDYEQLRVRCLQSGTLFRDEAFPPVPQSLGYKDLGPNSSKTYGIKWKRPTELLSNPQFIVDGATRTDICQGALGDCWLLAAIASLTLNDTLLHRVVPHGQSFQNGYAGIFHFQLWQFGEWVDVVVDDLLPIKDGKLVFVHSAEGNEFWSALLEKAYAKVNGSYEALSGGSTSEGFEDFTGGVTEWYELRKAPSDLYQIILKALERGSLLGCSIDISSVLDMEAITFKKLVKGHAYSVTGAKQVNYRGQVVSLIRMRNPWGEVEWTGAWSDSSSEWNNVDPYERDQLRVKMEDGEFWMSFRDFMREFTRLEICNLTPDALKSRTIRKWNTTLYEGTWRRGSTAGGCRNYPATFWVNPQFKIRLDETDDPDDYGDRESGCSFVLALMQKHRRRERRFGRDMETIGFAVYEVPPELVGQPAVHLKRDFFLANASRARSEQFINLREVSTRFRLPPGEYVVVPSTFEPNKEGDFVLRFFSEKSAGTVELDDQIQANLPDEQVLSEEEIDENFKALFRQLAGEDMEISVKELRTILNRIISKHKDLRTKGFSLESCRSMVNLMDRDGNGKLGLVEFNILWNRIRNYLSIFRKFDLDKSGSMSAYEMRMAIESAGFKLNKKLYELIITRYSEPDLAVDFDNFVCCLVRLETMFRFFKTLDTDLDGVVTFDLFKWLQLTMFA
T1 sequence (P04632 1-268 partner): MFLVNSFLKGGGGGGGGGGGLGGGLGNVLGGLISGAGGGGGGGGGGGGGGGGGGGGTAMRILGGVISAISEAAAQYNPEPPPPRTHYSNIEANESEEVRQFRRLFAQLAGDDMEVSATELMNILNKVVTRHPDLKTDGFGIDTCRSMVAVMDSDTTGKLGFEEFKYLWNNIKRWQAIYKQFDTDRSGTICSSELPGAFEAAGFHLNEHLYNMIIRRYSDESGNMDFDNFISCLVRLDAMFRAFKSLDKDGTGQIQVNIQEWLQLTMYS
In words: Calpain inhibition continuous fluorescence (FRET) assay, Human Calpain 1/NS1. The format is biochemical. Particulars: read-out: Human Calpain 1/NS1 IC50. The essentials: (§1)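 Inhibitors were preincubated with calpain in 50 mM Tris pH 7.5, 100 mM NaCl, 1 mM DTT at 25C. Reactions were started with 5-FAM/QXL 520 FRET peptide substrate plus CaCl2 and read at 490/520 nm for 10 min. IC50s came from 4-parameter fits of slope rates (1-5 min).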

The target of a further assay is T2, Human Calpain 2/NS1 (Homo sapiens, UniProt P17655).
T2 sequence (P17655 1-700): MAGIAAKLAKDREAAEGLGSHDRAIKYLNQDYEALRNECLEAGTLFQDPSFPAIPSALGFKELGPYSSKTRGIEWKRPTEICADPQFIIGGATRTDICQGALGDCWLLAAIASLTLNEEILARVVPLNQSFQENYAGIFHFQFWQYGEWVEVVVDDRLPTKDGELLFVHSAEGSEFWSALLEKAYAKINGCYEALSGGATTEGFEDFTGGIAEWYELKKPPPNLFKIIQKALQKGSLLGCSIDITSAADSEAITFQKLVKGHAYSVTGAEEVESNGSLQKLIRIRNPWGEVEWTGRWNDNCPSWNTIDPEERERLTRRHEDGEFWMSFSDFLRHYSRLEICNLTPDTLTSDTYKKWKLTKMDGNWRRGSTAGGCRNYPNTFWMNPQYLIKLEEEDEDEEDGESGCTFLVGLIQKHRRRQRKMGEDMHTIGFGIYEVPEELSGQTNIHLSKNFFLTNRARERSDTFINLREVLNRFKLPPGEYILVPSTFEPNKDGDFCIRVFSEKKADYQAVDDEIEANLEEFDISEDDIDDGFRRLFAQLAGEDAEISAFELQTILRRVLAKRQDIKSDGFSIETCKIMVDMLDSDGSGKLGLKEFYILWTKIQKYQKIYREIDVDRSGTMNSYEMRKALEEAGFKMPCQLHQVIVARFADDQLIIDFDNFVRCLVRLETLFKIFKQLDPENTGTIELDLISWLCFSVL
T2 sequence (P04632 1-268 partner): T1 sequence (P04632 1-268 partner)
Description: Calpain inhibition continuous fluorescence (FRET) assay, Human Calpain 2/NS1. The following applies: read-out: Human Calpain 2/NS1 IC50. The assay is classed as biochemical. Summed up:
as §1

A further assay has as its target T3, Human Calpain 9/NS1 (Homo sapiens, UniProt O14815).
T3 sequence (O14815 1-690): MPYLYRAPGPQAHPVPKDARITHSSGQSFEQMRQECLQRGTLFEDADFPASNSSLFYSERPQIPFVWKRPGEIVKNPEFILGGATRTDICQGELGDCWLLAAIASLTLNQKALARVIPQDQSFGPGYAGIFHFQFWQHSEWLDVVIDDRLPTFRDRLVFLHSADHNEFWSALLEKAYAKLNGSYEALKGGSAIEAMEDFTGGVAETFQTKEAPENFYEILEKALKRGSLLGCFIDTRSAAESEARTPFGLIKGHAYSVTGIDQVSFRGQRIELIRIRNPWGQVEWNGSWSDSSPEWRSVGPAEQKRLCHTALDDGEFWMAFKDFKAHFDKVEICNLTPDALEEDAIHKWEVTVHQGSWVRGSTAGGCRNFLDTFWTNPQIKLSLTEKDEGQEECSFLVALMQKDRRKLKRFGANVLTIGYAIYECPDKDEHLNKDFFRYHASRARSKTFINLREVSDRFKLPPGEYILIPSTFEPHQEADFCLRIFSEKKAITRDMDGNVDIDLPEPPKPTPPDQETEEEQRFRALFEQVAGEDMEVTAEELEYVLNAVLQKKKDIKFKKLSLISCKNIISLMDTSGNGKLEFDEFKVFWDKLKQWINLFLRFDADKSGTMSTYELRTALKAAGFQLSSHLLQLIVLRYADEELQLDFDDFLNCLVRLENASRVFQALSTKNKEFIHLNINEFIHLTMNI
T3 sequence (P04632 1-268 partner): T1 sequence (P04632 1-268 partner)
Description: Calpain inhibition continuous fluorescence (FRET) assay, Human Calpain 9/NS1. The assay is classed as biochemical. Particulars: read-out: Human Calpain 9/NS1 IC50. Summed up: as §1

Assay [1] relates to Calpain activity in SH-SY5Y cells (SBDP-150). Description: SH-SY5Y Spectrin western blot assay (SBDP-150 breakdown product, A23187-induced). The following applies: Homo sapiens; SH-SY5Y cells, A23187-induced SBDP-150, western blot; read-out: SH-SY5Y Spectrin IC50. The assay is classed as cell-based.
The subject of assay [2] is Calpain activity in SH-SY5Y cells. Description: SH-SY5Y + AMC fluorescence assay (Suc-LLVY-AMC substrate). The assay is classed as cell-based. The following applies: read-out: SH-SY5Y + AMC IC50.

Regarding `Cn1cc(C(=O)N[C@H](C=O)Cc2ccccc2)c(-c2ccccc2)n1` [Compound 317, (S)-1-methyl-N-(1-oxo-3-phenylpropan-2-yl)-3-phenyl-1H-pyrazole-4-carboxamide], the IC50 at Human Calpain 1/NS1 was less than 3 µM; at Human Calpain 2/NS1 it was less than 3 µM; on Human Calpain 9/NS1, less than 3 µM; in assay [1], 10 to 25 µM; in assay [2], greater than 25 µM.

Turning to `Cc1cc(C(=O)NC(Cc2ccccc2)C(=O)C(N)=O)c(-n2ccc(-c3ccccc3)n2)s1` (stereo not shown) [Compound 320, N-(4-amino-3,4-dioxo-1-phenylbutan-2-yl)-5-methyl-2-(3-phenyl-1H-pyrazol-1-yl)thiophene-3-carboxamide], the IC50 on Human Calpain 1/NS1 is less than 3 µM; at Human Calpain 2/NS1 it was less than 3 µM; on Human Calpain 9/NS1, less than 3 µM; in assay [1], 10 to 25 µM; in assay [2], greater than 25 µM.

For `NC(=O)C(=O)C(Cc1ccccc1)NC(=O)c1nsnc1-c1cccc(F)c1` (stereo not shown) [Compound 321, N-(4-amino-3,4-dioxo-1-phenylbutan-2-yl)-4-(3-fluorophenyl)-1,2,5-thiadiazole-3-carboxamide], the IC50 on Human Calpain 1/NS1 was less than 3 µM; at Human Calpain 2/NS1, less than 3 µM; on Human Calpain 9/NS1, less than 3 µM; in assay [1], less than 10 µM; in assay [2], greater than 25 µM.

Consider `Cc1nc(-c2ccccc2)c(C(=O)N[C@H](C=O)Cc2ccccc2)o1` [Compound 322, (S)-2-methyl-N-(1-oxo-3-phenylpropan-2-yl)-4-phenyloxazole-5-carboxamide], for which the IC50 at Human Calpain 1/NS1 is less than 3 µM; at Human Calpain 2/NS1 it was less than 3 µM; on Human Calpain 9/NS1, less than 3 µM; in assay [1], 10 to 25 µM; in assay [2], greater than 25 µM.

For the compound `Cc1cccc(-c2nsnc2C(=O)NC(Cc2ccccc2)C(=O)C(N)=O)c1` (stereo not shown) [Compound 325, N-(4-amino-3,4-dioxo-1-phenylbutan-2-yl)-4-(M-tolyl)-1,2,5-thiadiazole-3-carboxamide], the IC50 on Human Calpain 1/NS1 is less than 3 µM; on Human Calpain 2/NS1 it was less than 3 µM; on Human Calpain 9/NS1, less than 3 µM; in assay [1] it was greater than 25 µM; in assay [2], greater than 25 µM.

For `Cc1ccccc1-c1nsnc1C(=O)NC(Cc1ccccc1)C(=O)C(N)=O` (stereo not shown) [Compound 326, N-(4-amino-3,4-dioxo-1-phenylbutan-2-yl)-4-(o-tolyl)-1,2,5-thiadiazole-3-carboxamide], the IC50 on Human Calpain 1/NS1 was less than 3 µM; on Human Calpain 2/NS1, less than 3 µM; on Human Calpain 9/NS1, less than 3 µM; in assay [1], 10 to 25 µM; in assay [2], less than 10 µM.

Consider `NC(=O)C(=O)C(Cc1ccccc1)NC(=O)c1nsnc1-c1ccccc1F` (stereo not shown) [Compound 327, N-(4-amino-3,4-dioxo-1-phenylbutan-2-yl)-4-(2-fluorophenyl)-1,2,5-thiadiazole-3-carboxamide], for which the IC50 is less than 3 µM on Human Calpain 1/NS1; less than 3 µM on Human Calpain 2/NS1; less than 3 µM on Human Calpain 9/NS1; less than 10 µM in assay [1]; less than 10 µM in assay [2].

In the case of `Cn1cc(C(=O)N[C@H](C=O)Cc2ccccc2)c(-c2cccc(F)c2)n1` [Compound 328, (S)-3-(3-fluorophenyl)-1-methyl-N-(1-oxo-3-phenylpropan-2-yl)-1H-pyrazole-4-carboxamide], the IC50 was less than 3 µM on Human Calpain 1/NS1; less than 3 µM on Human Calpain 2/NS1; less than 3 µM on Human Calpain 9/NS1; 10 to 25 µM in assay [1]; greater than 25 µM in assay [2].

Take `Cc1cccc(-c2nn(C)cc2C(=O)N[C@H](C=O)Cc2ccccc2)c1` [Compound 329, (S)-1-methyl-N-(1-oxo-3-phenylpropan-2-yl)-3-(M-tolyl)-1H-pyrazole-4-carboxamide]: the IC50 was less than 3 µM at Human Calpain 1/NS1; less than 3 µM on Human Calpain 2/NS1; less than 3 µM at Human Calpain 9/NS1; greater than 25 µM in assay [1]; greater than 25 µM in assay [2].

Consider `O=C[C@H](Cc1ccccc1)NC(=O)c1cn(C2CC2)nc1-c1ccccc1` [Compound 330, (S)-1-cyclopropyl-N-(1-oxo-3-phenylpropan-2-yl)-3-phenyl-1H-pyrazole-4-carboxamide], for which the IC50 on Human Calpain 1/NS1 is less than 3 µM; at Human Calpain 2/NS1, less than 3 µM; on Human Calpain 9/NS1, less than 3 µM; in assay [1], 10 to 25 µM; in assay [2] it was 10 to 25 µM.

Regarding `Cc1cc(C)cc(C[C@H](NC(=O)c2cn(C)nc2-c2ccccc2)C(=O)C(N)=O)c1` [Compound 331], the IC50 at Human Calpain 1/NS1 is less than 3 µM; on Human Calpain 2/NS1, less than 3 µM; at Human Calpain 9/NS1, less than 3 µM; in assay [1], less than 10 µM; in assay [2], greater than 25 µM.

Turning to `CC[C@H](NC(=O)c1cn(C)nc1-c1ccccc1)C(=O)C(N)=O` [Compound 332, (S)—N-(1-amino-1,2-dioxopentan-3-yl)-1-methyl-3-phenyl-1H-pyrazole-4-carboxamide], the IC50 at Human Calpain 1/NS1 was less than 3 µM; at Human Calpain 2/NS1 it was less than 3 µM; at Human Calpain 9/NS1, less than 3 µM; in assay [1], greater than 25 µM; in assay [2], greater than 25 µM.

`CC[C@@H](C)[C@H](NC(=O)c1cn(C)nc1-c1ccccc1)C(=O)C(N)=O` [Compound 333, N-((3S,4R)-1-amino-4-methyl-1,2-dioxohexan-3-yl)-1-methyl-3-phenyl-1H-pyrazole-4-carboxamide]: the IC50 was less than 3 µM at Human Calpain 1/NS1; less than 3 µM at Human Calpain 2/NS1; less than 3 µM at Human Calpain 9/NS1; greater than 25 µM in assay [1]; greater than 25 µM in assay [2].

As for `Cn1cc(C(=O)N[C@@H](Cc2ccccc2)C(=O)C(=O)NCc2ncco2)c(-c2ccccc2)n1` [Compound 334, (S)-1-methyl-N-(4-((oxazol-2-ylmethyl)amino)-3,4-dioxo-1-phenylbutan-2-yl)-3-phenyl-1H-pyrazole-4-carboxamide], the IC50 on Human Calpain 1/NS1 is less than 3 µM; on Human Calpain 2/NS1, less than 3 µM; at Human Calpain 9/NS1, less than 3 µM; in assay [1], greater than 25 µM; in assay [2] it was less than 10 µM.
